The nature of the data set: Cytotoxicity on differentiated THP-1 macrophages. The data set is classed as cell-based. Particulars: human.
[1] abbreviates: differentiated THP-1 macrophages.

In PMC6020026 (Bioorganic & medicinal chemistry letters, 2017) one finds CC50 data, which are given here for five compounds.

As a reminder, the CC50 is the concentration giving 50% cytotoxicity. A lower CC50 goes with harm at low concentration.

In turn, `C[C@@H]1[C@H](O)[C@@H](C)/C=C/C=C/C=C/C=C/C=C/C=C/C=C/[C@H](O[C@@H]2O[C@H](C)[C@@H](O)[C@H](N)[C@@H]2O)C[C@@H]2O[C@](O)(C[C@@H](O)C[C@@H](O)[C@H](O)CC[C@@H](O)C[C@@H](O)CC(=O)O[C@H]1C)C[C@H](O)[C@H]2C(=O)O` [Amph.B, Amphotericin B, reference compound] yielded a CC50 under setting [1] of 9.8 µM.
For `O=C(/C=C/c1ccc([N+](=O)[O-])o1)c1ccc(C2CCCCC2)cc1` [LabMol-72], under setting [1], the half-maximal cytotoxic concentration (CC50) came out at 31.1 µM.
On to `O=C(/C=C/c1ccc([N+](=O)[O-])o1)c1ccc(I)cc1` [LabMol-78], for which the half-maximal cytotoxic concentration (CC50) under setting [1] came to 49.5 µM.
The compound `CC(C)(C)c1ccc(C(=O)/C=C/c2ccc([N+](=O)[O-])s2)cc1` [LabMol-86] returned a CC50 under setting [1] of 8.4 µM.
`CSc1ccc(C(=O)/C=C/c2ccc([N+](=O)[O-])o2)cc1` [LabMol-92] yielded a CC50 of 13.1 µM.
